Measured values reported in patent US8168232B2, “Formulations and methods of using nitric oxide mimetics in cancer treatment” (priority 2000, dated 2012).

How the values were obtained:
uPAR mRNA = assay: Northern blot analysis of uPAR mRNA in MDA-MB-231 breast carcinoma cells; assay type: cell-based, human
[1] = test system: Bl6F10 metastatic melanoma cells; assay: In vivo experimental metastasis (lung colonization) model; design: species or system C57BL6 mice
Procedure: C57BL6 mice were injected i.v. (tail vein) with a bolus of 5×10^4-10^5 Bl6F10 metastatic melanoma cells. Immediately after the tail vein injection, mice were randomly divided into groups of 15 and mice in each group were placed in plexiglass chambers (approximately 3 L) which were continuously flushed with gas mixtures of 20% O2:balance N2 and 10% O2:balance N2, respectively. […] After a 24 hour exposure to an atmosphere of either 20% O2 or 10% O2, mice were removed from the chambers and placed in regular cages kept at room air. Thirteen days later, mice were sacrificed by cervical dislocation, and lungs were removed and fixed in Bouin's fixative (Sigma). Metastatic nodules (many of which appeared black due to the presence of melanin) on the surface of the lungs were counted visually under a dissecting microscope. Data were expressed as the number of lung nodules per 10^4 cells injected and were analyzed using statistical tests for non-parametric values.
Cells were then removed from plates with trypsin and 5×10^4 cells were injected i.v. (tail vein) into C57BL6 female mice. Some of the cells treated in vitro were plated onto tissue culture dishes to determine colony-forming ability using the protocol described below in the Section I.J.
Following harvesting from culture plates, 5×10^4 cells were injected intravenously (tail vein injections) into 5-7 week old C57Bl/6 female mice. Cells were also plated in tissue culture plates to determine the effect of culture conditions on in vitro colony forming ability. Fourteen days after intravenous inoculation, mice were sacrificed and their lungs were removed and fixed in Bouin's fixative. Both melanotic and amelanotic metastatic colonies were counted under a dissecting microscope. Data were expressed as the number of lung nodules per 5×10^4 viable cells injected (as determined by in vitro colony-forming ability) and were analyzed using statistical tests for non-parametric values.

## O=[N+]([O-])OCC(CO[N+](=O)[O-])O[N+](=O)[O-] [GTN, glyceryl trinitrate]
uPAR mRNA; 1 μM of GTN
  effect of DFO on uPAR mRNA expression: not prevented
uPAR mRNA; 1% O2, SNP 10^−12 M, GTN 10^−11 M and 10^−10 M
  uPAR mRNA levels vs untreated hypoxic cells: significantly reduced
uPAR mRNA; GTN 1 μM
  hypoxic upregulation of uPAR mRNA expression: prevented
uPAR mRNA; GTN 1 μM with ODQ 0.5 μM
  effect of hypoxia on uPAR mRNA when ODQ also present: unable to block
uPAR mRNA; GTN (10^−10 M, 10^−6 M)
  inhibition of DFO (100 μM)-induced upregulation of uPAR: could not be inhibited
uPAR mRNA; GTN (a pM) as printed
  hypoxia-mediated increase in uPAR mRNA levels: inhibited
uPAR mRNA; combination of L-NMMA (0.5 mM) and GTN (0.1 nM), 20% O2
  uPAR transcript levels vs 20% O2 alone: no significant increase
[1]; cells pre-treated in vitro 12 h, 1% O2, 2×10^−11 M GTN
  decrease of hypoxia-stimulated lung nodule formation: 85%
[1]; cells pre-treated in vitro 12 h, 20% oxygen, 2×10^−11 M GTN
  reduction of extent of metastasis: more than 60%
[1]; concomitant GTN (10^−10 M) and L-NMMA
  attenuation of L-NMMA metastatic response: 60%
